Tests used:
[1] = system: thrombin generation in platelet rich plasma; assay: Thrombin generation/thrombogram in platelet rich plasma, rat clopidogrel model; type: in vivo; conditions: clopidogrel treatment, or single agent given to clopidogrel treated rats
Method: When Haemate® P was administered to clopigogrel treated rats an earlier onset of thrombin formation was observed but no increase of peak thrombin.

clopidogrel treated rats = assay: Tail tip bleeding (total blood loss) in the rat clopidogrel model; type: in vivo
Method: The study was designed as an open seven-armed trial with 115 rats (+60 platelet donors).
3.2 mL blood were mixed with 0.8 mL trisodium citrate. Blood samples were pooled and centrifuged at 900 RPM for 30 minutes. Platelet-rich-plasma was collected into a fresh tube and centrifugated at 1800-2000 RPM for 15-17 minutes. The pellet was gently resuspended in Tyrode HEPES+0.3% BSA. Depending on platelet yield animals received 1.6−3×10^9 washed platelets intravenous into the tail vein.
Tablets were dissolved in isotonic saline and administered by gavage. On day 2 freshly prepared rat platelets were transfused into the tail vein by a bolus. Haemate® P was administered directly prior to platelet transfusion. 15 minutes after administration of platelets, blood loss was determined. The volume of total blood loss was calculated by measuring the HGB present in the saline used for submersion of the tail tip. The tail tip cut was performed with a scalpel knife under deep anesthesia, removing about 3 mm of the tail tip. Immediately upon lesion, the tail tip was submerged in saline, kept at the physiological body temperature of the rats using a water bath. The observation period to monitor bleeding was 30 min.
Blood loss was determined as the total blood loss (t=0-30 min) and analyzed by two-sided exact Wilcoxon test, box plot and Kaplan-Meier plot.

[2] = Group 1: Plavix/Isotonic saline, t=0-30 min

COC(=O)[C@H](c1ccccc1Cl)N1CCc2sccc2C1 [Plavix, clopidogrel]
onset of thrombin formation [1]: later onset
peak thrombin [1]: decrease in peak thrombin
Total blood loss, Maximum (clopidogrel treated rats; [2]): 2345 µL
Total blood loss, Mean (clopidogrel treated rats; [2]): 1404.2 µL
Total blood loss, Median (clopidogrel treated rats; [2]): 1466 µL
Total blood loss, Minimum (clopidogrel treated rats; [2]): 265 µL
total blood loss (result in words) (clopidogrel treated rats; oral treatment with clopidogrel 2.5 mg/kg day 0 and day 1): increased total blood loss
